Activity calls are given as the source filed them. The rule behind the calls is not given here.
Experiments:
Thymidylate synthase = target: T1, Thymidylate synthase (Lactobacillus casei, UniProt P00469); test: Competitive inhibition of thymidylate synthase purified from methotrexate-resistant Lactobacillus casei using 2'-deoxy[5-3H]uridine 5'-phosphate by radioisotope assay; parameters: species or system Lacticaseibacillus casei
T1 sequence (P00469 whole entry): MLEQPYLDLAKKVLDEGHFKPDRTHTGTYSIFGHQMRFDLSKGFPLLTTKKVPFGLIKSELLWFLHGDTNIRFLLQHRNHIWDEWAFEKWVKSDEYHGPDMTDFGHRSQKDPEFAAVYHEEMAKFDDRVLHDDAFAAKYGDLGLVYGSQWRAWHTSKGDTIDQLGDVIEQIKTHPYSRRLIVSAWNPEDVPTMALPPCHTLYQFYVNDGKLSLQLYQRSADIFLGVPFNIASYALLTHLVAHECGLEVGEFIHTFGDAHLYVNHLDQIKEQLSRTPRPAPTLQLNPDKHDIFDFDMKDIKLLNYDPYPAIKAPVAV

[1] = target: T2, Thymidylate synthase (Lactobacillus casei) (UniProt P00469); test: Irreversible inhibition of thymidylate synthase purified from methotrexate-resistant Lactobacillus casei using 2'-deoxy[5-3H]uridine 5'-phosphate preincubated at 4 uM for 12 mins in absence of co-factor; conditions: Lacticaseibacillus casei
T2 sequence (whole entry): T1 sequence (P00469 whole entry)

`O=c1[nH]c(=O)n([C@H]2C[C@H](O)[C@@H](COP(=O)(O)O)O2)cc1[N+](=O)[O-]` was tested. Which Ki (Thymidylate synthase) did it give?
Its Ki is 29 nM.

With `O=c1[nH]c(=O)n([C@H]2C[C@H](O)[C@@H](COP(=O)(O)O)O2)cc1S` as the molecule, how does the Ki (Thymidylate synthase) read?
The Ki was 40 nM.

What does the source list for `N#Cc1cn([C@H]2C[C@H](O)[C@@H](COP(=O)(O)O)O2)c(=O)[nH]c1=O`?
Ki (Thymidylate synthase): 550 nM; inhibition [1]: inactive
